This passage reports IC50, inhibition and Activity results from ChEMBL document CHEMBL4813966, “Discovery of 3,6-disubstutited-imidazo[1,2-a]pyridine derivatives as a new class of CLK1 inhibitors” (Bioorg Med Chem Lett, 2021).

pIC50: −log10 of the molar value. Calls of active or inactive are those of the source. The rule behind the calls is not given here. Bounds are passed on as bounds.

Assay [1] addresses T1, Dual specificity protein kinase CLK1 (Homo sapiens, UniProt P49759). As to the kind of experiment: Inhibition of recombinant human CLK1 (130 to end residues) using ERMRPRKRQGSVR as substrate incubated for 40 mins in presence of [gamma-33ATP] by scintillation counting based radiometry assay.
Target sequence in this assay (P49759 whole entry): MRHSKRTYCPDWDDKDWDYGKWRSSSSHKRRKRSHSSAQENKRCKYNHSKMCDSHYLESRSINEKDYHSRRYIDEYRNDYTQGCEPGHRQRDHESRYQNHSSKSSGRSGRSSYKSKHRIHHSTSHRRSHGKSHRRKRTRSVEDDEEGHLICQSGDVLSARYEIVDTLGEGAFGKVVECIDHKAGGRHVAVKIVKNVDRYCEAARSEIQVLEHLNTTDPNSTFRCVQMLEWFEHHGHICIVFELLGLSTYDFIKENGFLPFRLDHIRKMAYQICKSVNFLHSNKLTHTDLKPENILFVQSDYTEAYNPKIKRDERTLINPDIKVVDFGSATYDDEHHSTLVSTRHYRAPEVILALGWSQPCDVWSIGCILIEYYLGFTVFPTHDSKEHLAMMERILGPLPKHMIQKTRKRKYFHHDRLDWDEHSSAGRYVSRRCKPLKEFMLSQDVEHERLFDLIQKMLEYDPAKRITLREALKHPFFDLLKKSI
In assay [2] the target is T1, Dual specificity protein kinase CLK1. As to the kind of experiment: Inhibition of CLK1 in human SKOV-3 cells assessed as redistribution of SR protein from nucleoplasm to nuclear speckles at 0.1 uM after 24 hrs by immunofluorescence assay. The assay is classed as cell-based. To be noted: SK-OV-3.
Target sequence in this assay (P49759 whole entry, looked up): as the sequence (P49759 whole entry) above
For assay [3] the target is unchanged. As to the kind of experiment: Inhibition of CLK1 in human SKOV-3 cells assessed as decrease in SRp75 phosphorylation after 24 hrs by Western blot analysis. The assay is classed as cell-based. Particulars: SK-OV-3, dose 0.33-30 µM.
Target sequence in this assay (P49759 whole entry, looked up): as the sequence (P49759 whole entry) above
Assay [4] shares this target. The assay is described as follows: Inhibition of CLK1 in human SKOV-3 cells assessed as decrease in SRp55 phosphorylation after 24 hrs by Western blot analysis. The assay is classed as cell-based. Particulars: SK-OV-3, dose 0.33-30 µM.
Target sequence in this assay (P49759 whole entry, looked up): as the sequence (P49759 whole entry) above
For assay [5], the system named is SK-OV-3. As to the kind of experiment: Induction of autophagy in human SKOV-3 cells assessed as increase in LC3-II protein level incubated for 24 hrs by Western blot analysis. Particulars: dose 0.33-30 µM. The assay is classed as functional, cell-based.
The test system of assay [6] is SK-OV-3. The assay is described as follows: Induction of autophagy in human SKOV-3 cells assessed as increase in LC3-II to LC3-I ratio incubated for 24 hrs by Western blot analysis. Particulars: dose 0.33-30 µM. The assay is classed as functional, cell-based.
Assay [7] deals with SK-OV-3. As to the kind of experiment: Induction of autophagy in human SKOV-3 cells transfected with Ad-mRFP-GFP-LC3 assessed as induction of autophagosomes formation by measuring increase in number of yellow LC3 puncta at 0.1 uM measured after 24 hrs by confocal microscopic analysis. The assay is classed as functional, cell-based.
Assay [8] relates to SK-OV-3. The assay is described as follows: Induction of autophagy in human SKOV-3 cells transfected with Ad-mRFP-GFP-LC3 assessed as induction of autolysosomes formation by measuring increase in number of red LC3 puncta at 0.1 uM measured after 24 hrs by confocal microscopic analysis. The assay is classed as functional, cell-based.
Assay [9] relates to SK-OV-3. As to the kind of experiment: Induction of autophagy in human SKOV-3 cells assessed as degradation of SQSTM1/p62 at 0.33 to 30 uM measured after 24 hrs by Western blot analysis. The assay is classed as functional, cell-based. To be noted: dose 0.33-30 µM.
For assay [10], the system named is SK-OV-3. As to the kind of experiment: Induction of autophagic flux in human SKOV-3 cells assessed as LC3-II protein level at 10 uM after 24 hrs in presence of V-ATPase inhibitor bafilomycin-A1 by Western blot analysis. The assay is classed as functional, cell-based.
For assay [11], the system named is SK-OV-3. As to the kind of experiment: Induction of autophagic flux in human SKOV-3 cells assessed as SQSTM1/p62 protein level at 10 uM after 24 hrs in presence of V-ATPase inhibitor bafilomycin-A1 by Western blot analysis. The assay is classed as functional, cell-based.
Assay [12] concerns the target Dual specificity protein kinase CLK2 (Homo sapiens, UniProt P49760). The assay is described as follows: Inhibition of recombinant human CLK2 (138 to end residues) using YRRAAVPPSPSLSRHSSPHQS(p)EDEEE as substrate incubated for 40 mins in presence of [gamma-33ATP] by scintillation counting based radiometry assay.
Assay [13] concerns the target Dual specificity protein kinase CLK3 (Homo sapiens, UniProt P49761). The assay is described as follows: Inhibition of recombinant full length human CLK3 using ERMRPRKRQGSVR as substrate incubated for 40 mins in presence of [gamma-33ATP] by scintillation counting based radiometry assay.
Assay [14] has as its target Dual specificity protein kinase CLK4 (Homo sapiens, UniProt Q9HAZ1). As to the kind of experiment: Inhibition of recombinant human CLK4 (128 to end residues) using YRRAAVPPSPSLSRHSSPHQS(p)EDEEE as substrate incubated for 40 mins in presence of [gamma-33ATP] by scintillation counting based radiometry assay.
Assay [15] addresses Dual specificity tyrosine-phosphorylation-regulated kinase 1A (Homo sapiens, UniProt Q13627). As to the kind of experiment: Inhibition of recombinant full length human DYRK1A using RRRFRPASPLRGPPK as substrate incubated for 40 mins in presence of [gamma-33ATP] by scintillation counting based radiometry assay.
Assay [16] concerns the target Dual specificity tyrosine-phosphorylation-regulated kinase 1B (Homo sapiens, UniProt Q9Y463). As to the kind of experiment: Inhibition of recombinant full length human DYRK1B using RRRFRPASPLRGPPK as substrate incubated for 40 mins in presence of [gamma-33ATP] by scintillation counting based radiometry assay.

Sequence of Dual specificity protein kinase CLK3 (P49761 whole entry): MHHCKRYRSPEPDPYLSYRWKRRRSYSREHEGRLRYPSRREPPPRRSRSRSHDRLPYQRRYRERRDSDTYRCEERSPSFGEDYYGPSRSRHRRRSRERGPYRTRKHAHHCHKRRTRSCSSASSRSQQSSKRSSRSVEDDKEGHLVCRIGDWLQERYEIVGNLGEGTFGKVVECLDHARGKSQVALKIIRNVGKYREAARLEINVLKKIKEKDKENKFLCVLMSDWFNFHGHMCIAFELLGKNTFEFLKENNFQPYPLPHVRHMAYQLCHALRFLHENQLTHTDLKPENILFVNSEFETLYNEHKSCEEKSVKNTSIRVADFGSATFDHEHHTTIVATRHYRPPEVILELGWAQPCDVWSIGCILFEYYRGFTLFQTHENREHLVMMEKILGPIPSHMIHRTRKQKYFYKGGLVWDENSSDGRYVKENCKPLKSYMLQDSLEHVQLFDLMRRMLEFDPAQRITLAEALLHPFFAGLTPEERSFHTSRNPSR
Sequence of Dual specificity protein kinase CLK2 (P49760 whole entry): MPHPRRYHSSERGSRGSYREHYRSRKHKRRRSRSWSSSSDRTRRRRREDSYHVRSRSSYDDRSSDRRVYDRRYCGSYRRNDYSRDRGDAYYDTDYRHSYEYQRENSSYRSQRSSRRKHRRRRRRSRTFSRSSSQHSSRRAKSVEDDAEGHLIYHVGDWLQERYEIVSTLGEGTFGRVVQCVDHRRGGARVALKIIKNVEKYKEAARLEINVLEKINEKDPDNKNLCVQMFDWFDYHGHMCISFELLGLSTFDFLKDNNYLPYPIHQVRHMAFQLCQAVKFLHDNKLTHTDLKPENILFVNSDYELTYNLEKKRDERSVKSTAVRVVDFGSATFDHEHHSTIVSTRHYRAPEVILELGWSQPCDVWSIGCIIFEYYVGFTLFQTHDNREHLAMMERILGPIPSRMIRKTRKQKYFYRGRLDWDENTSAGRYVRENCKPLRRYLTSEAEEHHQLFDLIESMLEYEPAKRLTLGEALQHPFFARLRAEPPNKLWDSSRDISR
Sequence of Dual specificity tyrosine-phosphorylation-regulated kinase 1B (Q9Y463 whole entry): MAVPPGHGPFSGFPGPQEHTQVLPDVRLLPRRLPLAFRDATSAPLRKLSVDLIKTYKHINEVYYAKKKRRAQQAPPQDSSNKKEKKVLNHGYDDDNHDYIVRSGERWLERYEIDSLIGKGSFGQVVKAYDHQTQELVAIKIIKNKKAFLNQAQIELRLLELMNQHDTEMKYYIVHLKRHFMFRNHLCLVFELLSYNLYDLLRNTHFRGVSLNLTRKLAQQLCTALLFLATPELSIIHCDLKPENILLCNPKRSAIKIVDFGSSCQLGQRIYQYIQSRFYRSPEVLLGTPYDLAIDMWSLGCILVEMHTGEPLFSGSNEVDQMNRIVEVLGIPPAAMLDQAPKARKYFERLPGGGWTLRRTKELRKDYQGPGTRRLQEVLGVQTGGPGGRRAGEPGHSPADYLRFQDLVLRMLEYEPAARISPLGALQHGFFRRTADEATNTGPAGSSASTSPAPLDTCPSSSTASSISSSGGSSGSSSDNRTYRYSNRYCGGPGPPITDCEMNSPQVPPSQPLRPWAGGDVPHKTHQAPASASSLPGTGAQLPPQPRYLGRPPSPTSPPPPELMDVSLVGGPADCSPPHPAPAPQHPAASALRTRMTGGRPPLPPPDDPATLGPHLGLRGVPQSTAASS
Sequence of Dual specificity protein kinase CLK4 (Q9HAZ1 whole entry): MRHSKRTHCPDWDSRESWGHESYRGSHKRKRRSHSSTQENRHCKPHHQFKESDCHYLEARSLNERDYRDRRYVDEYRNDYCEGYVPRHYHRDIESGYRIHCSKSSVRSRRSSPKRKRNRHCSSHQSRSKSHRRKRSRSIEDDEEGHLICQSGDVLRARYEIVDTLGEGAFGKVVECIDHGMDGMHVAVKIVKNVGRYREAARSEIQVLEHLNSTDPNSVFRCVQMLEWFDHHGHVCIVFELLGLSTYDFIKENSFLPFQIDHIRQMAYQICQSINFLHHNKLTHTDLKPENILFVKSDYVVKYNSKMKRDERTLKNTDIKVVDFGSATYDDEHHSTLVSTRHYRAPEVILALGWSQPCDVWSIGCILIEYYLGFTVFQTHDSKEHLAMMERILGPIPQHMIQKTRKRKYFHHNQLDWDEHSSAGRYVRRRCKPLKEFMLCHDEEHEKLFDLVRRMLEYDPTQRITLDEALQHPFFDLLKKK

For `C[C@H](NC(=O)c1cnc2ccc(-c3cnn(C)c3)cn12)c1ccccc1`, the pIC50 in assay [1] is 6.53.

For the molecule `C[C@@H](NC(=O)c1cnc2ccc(-c3ccc4ncccc4c3)cn12)c1ccccc1`, the negative logarithm of the IC50 (pIC50) in assay [1] is 8.22.

Consider `COc1ccc(CNC(=O)c2cnc3ccc(-c4c(C)noc4C)cn23)cc1`, for which the negative logarithm of the IC50 (pIC50) in [1] was less than 5.00.

Regarding `C[C@@H](NC(=O)c1cnc2ccc(-c3cnn(C)c3)cn12)c1ccccc1`, the pIC50 in [1] is 7.85.

As for `C[C@H](NC(=O)c1cnc2ccc(-c3ccc4ncccc4c3)cn12)c1ccccc1`, the pIC50 in assay [1] was 7.28.

Turning to `COc1ccc(CNC(=O)c2cnc3ccc(-c4ccc5ccccc5c4)cn23)cc1`, the negative-log IC50 (pIC50) in [1] is less than 5.00.

In the case of `COc1ccc(CNC(=O)c2cnc3ccc(-c4ccncc4)cn23)cc1`, the pIC50 in assay [1] is 7.89.

Take `COc1ccc(CNC(=O)c2cnc3ccc(-c4ccc5ncccc5c4)cn23)cc1`: the pIC50 in assay [1] was 8.40; in [12], 7.30; in assay [13], less than 5.00; in [14], 7.77; in [15], 8.00; in [16], 6.83. Also, the inhibition result in assay [2] is “Active”. Also, the inhibition result in [3] and in [4] was “Dose-Dependent Effect” in each case. Further, the Activity result in the assay on SK-OV-3 [5] and with SK-OV-3 [6] was “Dose-Dependent Effect” in each case. Moreover, the outcome in the assay with SK-OV-3 [7], in the assay on SK-OV-3 [8] and in the assay on SK-OV-3 [9] was Active. For the same molecule, the result in the assay on SK-OV-3 [10] and with SK-OV-3 [11] was inactive.

In the case of `COc1ccc(CNC(=O)c2cnc3ccc(-c4cnn(C)c4)cn23)cc1`, the pIC50 in [1] is 8.22.

Turning to `CC(C)Oc1ccc(CNC(=O)c2cnc3ccc(-c4cnn(C)c4)cn23)cc1`, the pIC50 in assay [1] was 8.10.

As for `COc1ccc(CNC(=O)c2cnc3ccc(-c4ccc5ocnc5c4)cn23)cc1`, the negative logarithm of the IC50 (pIC50) in assay [1] was 6.91.

Regarding `COc1ccc([C@H](C)NC(=O)c2cnc3ccc(-c4ccc5ncccc5c4)cn23)cc1`, the pIC50 in [1] is 7.36.

Regarding `C[C@@H](NC(=O)c1cnc2ccc(-c3cnn(C)c3)cn12)c1ccc(Cl)cc1`, in [1], the pIC50 is 7.96.

Take `COc1ccc([C@H](C)NC(=O)c2cnc3ccc(-c4cnn(C)c4)cn23)cc1`: in assay [1], the pIC50 was 6.09.

With `COc1ccc(NNC(=O)c2cnc3ccc(-c4ccc5ncccc5c4)cn23)cc1`, the pIC50 in assay [1] is 8.30.

Turning to `CNC(=O)c1cnc2ccc(-c3cnn(C)c3)cn12`, the negative-log IC50 (pIC50) in [1] is 7.64.

For the molecule `COc1ccc([C@@H](C)NC(=O)c2cnc3ccc(-c4cnn(C)c4)cn23)cc1`, in assay [1], the pIC50 is 8.10.

As for `Cn1cc(-c2ccc3ncc(C(=O)NCc4ccccc4)n3c2)cn1`, the pIC50 in assay [1] is 7.92.

In the case of `Cn1cc(-c2ccc3ncc(C(=O)NCc4ccc(Cl)cc4)n3c2)cn1`, in assay [1], the pIC50 was 7.85.

Consider `COc1cccc(CNC(=O)c2cnc3ccc(-c4cnn(C)c4)cn23)c1`, for which, in [1], the pIC50 is 7.96.

As to `COc1ccc(NC(=O)c2cnc3ccc(-c4cnn(C)c4)cn23)cc1`, the pIC50 in [1] was 8.15.

Consider `C[C@H](NC(=O)c1cnc2ccc(-c3cnn(C)c3)cn12)c1ccc(Cl)cc1`, for which the negative logarithm of the IC50 (pIC50) in assay [1] was 6.40.

Turning to `COc1ccc([C@@H](C)NC(=O)c2cnc3ccc(-c4ccc5ncccc5c4)cn23)cc1`, the negative logarithm of the IC50 (pIC50) in assay [1] was 8.22.
